In ChEMBL document CHEMBL6071129, “Strategies that regulate Hippo signaling pathway for novel anticancer therapeutics” (Eur J Med Chem, 2024):

Experiments:
MGC-803 = assay: Antiproliferative activity against human MGC-803 cells incubated for 48 hrs by MTT assay; format: functional, cell-based; conditions: MGC-803, 48 h
PC-3 = assay: Antiproliferative activity against human PC-3 cells incubated for 48 hrs by MTT assay; format: functional, cell-based; conditions: PC-3, 48 h
SGC-7901 = assay: Antiproliferative activity against human SGC-7901 cells incubated for 48 hrs by MTT assay; format: functional, cell-based; conditions: SGC-7901, 48 h
HGC-27 = assay: Antiproliferative activity against human HGC-27 cells incubated for 48 hrs by MTT assay; format: functional, cell-based; conditions: HGC-27, 48 h
HCT-116 = assay: Antiproliferative activity against human HCT-116 cells incubated for 48 hrs by MTT assay; format: functional, cell-based; conditions: HCT-116, 48 h
MCF7 [1] = assay: Antiproliferative activity against human MCF7 cells incubated for 48 hrs by MTT assay; format: functional, cell-based; conditions: MCF7, 48 h
C6 = assay: Antiproliferative activity against rat C6 cells incubated for 48 hrs by CCK8 assay; format: functional, cell-based; conditions: C6, 48 h
U-251 [2] = assay: Antiproliferative activity against human U251 cells incubated for 48 hrs by CCK8 assay; format: functional, cell-based; conditions: U-251, 48 h
NCI-H460 = assay: Antiproliferative activity against human NCI-H460 cells incubated for 48 hrs by SRB assay; format: functional, cell-based; conditions: NCI-H460, 48 h
NCI-H1975 = assay: Antiproliferative activity against human NCI-H1975 cells incubated for 48 hrs by SRB assay; format: functional, cell-based; conditions: NCI-H1975, 48 h
[3] = test system: Lewis lung carcinoma cell line; assay: Antiproliferative activity against mouse Lewis lung carcinoma cell line incubated for 48 hrs by SRB assay; format: functional, cell-based
[4] = Antiproliferative activity against CMT47 cells incubated for 48 hrs; format: functional; conditions: Canis lupus familiaris, read-out: ED50 (the source's name)
[5] = Antiproliferative activity against CMT9 cells incubated for 48 hrs; format: functional; conditions: Canis lupus familiaris, read-out: ED50 (the source's name)
HuCCT-1 = assay: Antiproliferative activity against human HuCCT-1 cells incubated for 24 hrs by WST-1 assay; format: functional, cell-based; conditions: HuCCT-1, 24 h
[6] = Antiproliferative activity against human HBC5 cells incubated for 96 hrs by MTT assay; format: functional, cell-based; conditions: HBC5, 96 h
MDA-MB-231 [7] = assay: Antiproliferative activity against human MDA-MB-231 cells incubated for 96 hrs by MTT assay; format: functional, cell-based; conditions: MDA-MB-231, 96 h
GBM = assay: Antiproliferative activity against human GBM cells incubated for 48 hrs by CCK8 assay; format: functional, cell-based
LN-229 = assay: Antiproliferative activity against LN-229 cells incubated for 48 hrs by CCK8 assay; format: functional, cell-based; conditions: Homo sapiens, LN-229, 48 h
U-87 MG = assay: Antiproliferative activity against human U87 cells incubated for 48 hrs by CCK8 assay; format: functional, cell-based, U-87MG ATCC
U-251 [8] = assay: Antiproliferative activity against human U-251 cells incubated for 48 hrs by CCK8 assay; format: functional, cell-based; conditions: U-251, 48 h
[9] = Antiproliferative activity against […] cells incubated for 48 hrs by CCK8 assay; format: functional, cell-based; conditions: U373 MG
[10] = Antiproliferative activity against mouse GL261 cells incubated for 48 hrs by CCK8 assay; format: functional, cell-based; conditions: GL261, 48 h
4T1 = assay: Antiproliferative activity against mouse 4T1 cells incubated for 72 hrs by SRB method; format: functional, cell-based; conditions: 4T1, 72 h
MDA-MB-231 [11] = assay: Antiproliferative activity against human MDA-MB-231 cells incubated for 72 hrs by SRB method; format: functional, cell-based; conditions: MDA-MB-231, 72 h
MDA-MB-453 = assay: Antiproliferative activity against human MDA-MB-453 cells incubated for 96 hrs by MTT assay; format: functional, cell-based; conditions: MDA-MB-453, 96 h
MCF7 [12] = assay: Antiproliferative activity against human MCF7 cells incubated for 48 hrs by CCK8 assay; format: functional, cell-based; conditions: MCF7, 48 h
A-375 = assay: Antiproliferative activity against human A-375 cells incubated for 72 hrs by alamar blue staining based assay; format: functional, cell-based; conditions: A-375, 72 h
C8161 = assay: Antiproliferative activity against human C8161 cells incubated for 72 hrs by alamar blue staining based assay; format: functional, cell-based; conditions: C8161, 72 h
[13] = Inhibition of cell invasion in human colorectal cancer cells; format: functional

## COc1ccc(S(=O)(=O)N(Cc2nc(C)c3ccccc3n2)c2cc(OC)c(OC)c(OC)c2)cc1
MGC-803
  IC50: 0.36 µM
PC-3
  IC50: 1.04 µM
SGC-7901
  IC50: 0.38 µM
HGC-27
  IC50: 0.46 µM
HCT-116
  IC50: 0.7 µM
MCF7 [1]
  IC50: 0.81 µM

## O=c1ccc2ccc3occc3c2o1 [ANGELICIN]
C6
  IC50: 200 µM
U-251 [2]
  IC50: 200 µM

## C[C@H]1[C@H](OC(=O)CCC(=O)O)O[C@@H]2O[C@@]3(C)CC[C@H]4[C@H](C)CC[C@@H]1[C@@]24OO3 [ARTESUNATE]
NCI-H460
  IC50: 16.1 µM
NCI-H1975
  IC50: 4.02 µM
[3]
  IC50: 11.1 µM

## CC(C)c1c(C(=O)Nc2ccccc2)c(-c2ccccc2)c(-c2ccc(F)cc2)n1CC[C@@H](O)C[C@@H](O)CC(=O)O [ATORVASTATIN]
[4]
  EC50: 7 µM
[5]
  EC50: 23.5 µM
HuCCT-1
  IC50: < 50 µM

## Cc1nc(Nc2ncc(C(=O)Nc3c(C)cccc3Cl)s2)cc(N2CCN(CCO)CC2)n1 [DASATINIB ANHYDROUS]
[6]
  IC50: < 10 µM
MDA-MB-231 [7]
  IC50: < 10 µM

## CN(C)CCCN1c2ccccc2CCc2ccccc21 [IMIPRAMINE]
GBM
  IC50: 22.1 µM
LN-229
  IC50: 153 µM
U-87 MG
  IC50: 13.3 µM
U-251 [8]
  IC50: 24 µM
[9]
  IC50: 346 µM
[10]
  IC50: 43.8 µM

## O=c1cc(-c2ccc(O)c(O)c2)oc2cc(O)cc(O)c12 [LUTEOLIN]
4T1
  IC50: 6.98 µM
MDA-MB-231 [11]
  IC50: 19.2 µM

## Cc1ccc(Nc2nccc(N(C)c3ccc4c(C)n(C)nc4c3)n2)cc1S(N)(=O)=O [PAZOPANIB]
MDA-MB-453
  IC50: ≤ 10 µM
[6]
  IC50: ≤ 10 µM
MDA-MB-231 [7]
  IC50: ≤ 10 µM

## CCC(C)(C)C(=O)O[C@H]1C[C@@H](C)C=C2C=C[C@H](C)[C@H](CC[C@@H]3C[C@@H](O)CC(=O)O3)[C@H]21 [SIMVASTATIN]
MCF7 [12]
  IC50: > 10 µM

## CC(C)[C@]12O[C@H]1[C@@H]1O[C@@]13[C@@]1(C)CCC4=C(COC4=O)[C@@H]1C[C@@H]1O[C@@]13C2=O [TRIPTONIDE]
A-375
  IC50: 0.0162 µM
C8161
  IC50: 0.00556 µM

## N#Cc1ccc2[nH]cc(CCCCN3CCN(c4ccc5oc(C(N)=O)cc5c4)CC3)c2c1 [VILAZODONE]
[13]
  inhibition (INH): 36%
